Test [1] has as its system RPMI 8226 (Bortezomib-sensitive) versus THLE-2 healthy control cells. The test can be described thus: FSC in vitro cellular assay, output = cell viability of THLE-2 minus cell viability of RPMI 8226, with linear regression and response surface maps. It counts as cell-based. The conditions noted are these: for drug candidate assessment from two-drug interaction terms: first iteration, interaction coefficients with desirable candidates.
From the text: This is expressed as a therapeutic window (% Output) that is the difference in percentage (%) viability between treated multiple myeloma and THLE-2 cells.

The test system of test [2] is Bortezomib-sensitive RPMI 8226 multiple myeloma cells. Kind of test: Inhibitory concentrations (ICx, inhibition of cell growth) of the drugs in FSC-derived optimal combinations, Bortezomib-sensitive multiple myeloma. It counts as cell-based. The following applies: concentration of the single drug as used in optimal combinations. From the text:
FIG. 8: Table showing the design of three iterations. IC20 represents 20% inhibitory concentration, which is the dosage of drug for 20% inhibition of cell growth. The first and second iterations are drug screening experiments to remove unfavorable drug candidates.
FIG. 14: Multi-drug optimization experimental assessment of prescribed combinations and output. […] The calculated y from the equation (FIG. 13) is the output as shown here.
In each iteration (experiment run), a list of drug combinations used is based on an experimental design methodology that aims to reduce the number of experiments to obtain sufficient information to build a mathematical equation.
After the list of drug combinations is determined, the drug combinations are applied to an in vitro cellular assay. A healthy control cell (THLE-2) is used to determine liver toxicity caused by drug treatment. Drug efficacy is determined using the B lymphocyte cancer cell (RPMI 8226). Favorable drug combinations would maximize cancer cell killing while minimizing health cell death. […] The experiments are conducted in a rapid, high-throughput manner using an automated liquid handler machine.

Consider `CC(C)C[C@H](NC(=O)[C@H](CCc1ccccc1)NC(=O)CN1CCOCC1)C(=O)N[C@@H](Cc1ccccc1)C(=O)N[C@@H](CC(C)C)C(=O)[C@@]1(C)CO1` [Carfilzomib, (2S)-N-((S)-1-((S)-4-methyl-1-((R)-2-methyloxiran-2-yl)-1-oxopentan-2-ylcarbamoyl)-2-phenylethyl)-2-((S)-2-(2-morpholinoacetamido)-4-phenylbutanamido)-4-methylpentanamide], for which the “effect of presence or absence of the drug on the output” value in test [1] (third iteration, other four drugs kept at 100%) is on record as “does not change the output”.
Take `O.O=P1(N(CCCl)CCCl)NCCCO1` (stereo not shown) [Cyclophoshamide monohydrate]: the “drug candidate assessment from two-drug interaction terms” value (“drug candidate assessment” below) in test [1] (first attempt) and in test [1] (second attempt) was “can be eliminated” throughout.
Consider `Nc1ncn([C@H]2C[C@H](O)[C@@H](CO)O2)c(=O)n1` [Decitabine, 5-aza-2′-deoxycytidine], for which, in test [1] (first attempt), the “drug candidate assessment” value is given as “can be eliminated”.
For `CO[C@@]12[C@H](COC(N)=O)C3=C(C(=O)C(C)=C(N)C3=O)N1C[C@@H]1N[C@@H]12` [Mitomycin C], the “drug candidate assessment” value in test [1] (second attempt) was “can be eliminated”.
With `Cc1[nH]c2ccccc2c1CCNCc1ccc(/C=C/C(=O)NO)cc1` [Panobinostat, (2E)-N-hydroxy-3-[4-({[2-(2-methyl-1H-indol-3-yl)ethyl]amino}methyl)phenyl]acrylamide], in test [2], the IC8.75 is about 0.0003239 µM, the IC17.5 was about 0.0005905 µM, the IC26.25 was about 0.0008734 µM and the IC35 was about 1.195 nM. In test [2] (listed as Panobinostal), the IC8.75 result was “IC8.75/[3.239E−4 μM]”, the IC17.5 entry is “IC17.5/[5.905E−4 μM]”, the IC26.25 result was “IC26.25/[8.734E−4 μM]” and the IC35 result was “IC35/[1.195E−3 μM]”.

(Values after US20190125772A1, “IMPROVED DRUG COMBINATIONS FOR DRUG-RESISTANT AND DRUG-SENSITIVE MULTIPLE MYELOMA” (priority 2015, published 2019).)
